In patent publication US11458138B2 (Novartis AG, priority 2017, dated 2022):
pEC50, pIC50: −log10 of the molar value.

What was measured:
[1] = system: Phospho-YAP (SER127) in HaCaT cells; experiment: pYAP HTRF Assay (HaCaT Cells); assay type: cell-based, human; conditions: Homo sapiens, 2 hours
Outline: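 HaCaT cells at 5500 cells/well were cultured 48 hours at 37° C, then treated with compound for 2 hours. Phospho-YAP (Ser127) was detected by HTRF after an overnight (20 hrs) room-temperature incubation, read as the 665 nm/620 nm ratio.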

[2] = system: human limbal stem cells (LSCs); experiment: Human limbal stem cell population expansion: expansion factor; assay type: cell-based; conditions: 10 micromolar, XVIVO15 medium, two passages, ratio of expanded to seeded cells
Experimental: (§1) Cells were cultured at 37° C. in 5% CO2.
(§2) For each compound, two sets of cultures were generated. A first set of cultures was fixed in 4% PFA for 20 minutes at room temperature after cells isolated from the cornea had attached to the cell culture dish (typically 24 h after cell plating). A second set of cultures was fixed in 4% PFA for 20 minutes at room temperature after being cultured for two passages. Cells were passaged when they reached 90-100% confluence.
To evaluate cell expansion ratios, nuclei were counted using a Zeiss LSM 880 confocal microscope. The expansion factor was then determined by calculating the ratio of the expanded population of cells to population of seeded cells.

[3] = molecular target: Human LATS2 kinase domain protein (Homo sapiens (Human), UniProt Q9NRM7); experiment: LATS2 Biochemical Caliper Assay (Compound Examples 1-290); conditions: 400 micromolar ATP
Chain of Human LATS2 kinase domain protein (Q9NRM7 553-1088): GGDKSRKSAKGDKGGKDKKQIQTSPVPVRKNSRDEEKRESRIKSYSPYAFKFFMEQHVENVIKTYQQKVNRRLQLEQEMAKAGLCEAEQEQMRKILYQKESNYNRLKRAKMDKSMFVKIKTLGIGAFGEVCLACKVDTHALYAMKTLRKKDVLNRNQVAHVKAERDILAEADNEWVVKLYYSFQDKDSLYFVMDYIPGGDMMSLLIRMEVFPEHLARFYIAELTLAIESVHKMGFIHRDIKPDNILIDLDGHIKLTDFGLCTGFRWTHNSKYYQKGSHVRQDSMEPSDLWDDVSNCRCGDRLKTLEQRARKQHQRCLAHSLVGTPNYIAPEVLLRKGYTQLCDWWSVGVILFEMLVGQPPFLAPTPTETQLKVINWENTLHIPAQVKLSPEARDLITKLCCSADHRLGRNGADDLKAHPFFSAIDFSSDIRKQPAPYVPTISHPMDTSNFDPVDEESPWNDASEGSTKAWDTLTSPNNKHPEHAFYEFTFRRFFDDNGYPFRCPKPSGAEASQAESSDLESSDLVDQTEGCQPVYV
Chain of Human LATS2 kinase domain protein (Q7L9L4 whole entry partner, the tested form may be a part): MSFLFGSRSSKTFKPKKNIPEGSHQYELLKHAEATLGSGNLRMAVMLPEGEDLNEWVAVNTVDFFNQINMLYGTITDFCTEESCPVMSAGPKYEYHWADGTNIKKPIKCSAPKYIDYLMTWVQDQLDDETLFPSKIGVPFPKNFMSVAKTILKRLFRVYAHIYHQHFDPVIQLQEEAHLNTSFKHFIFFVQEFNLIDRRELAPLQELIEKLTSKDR
Experimental: Human LATS2 kinase domain protein was purchased from Carnabio (catalogue number 01-124), which harbors the catalytic domain of amino acids 553-1088, and was co-purified with human His-tagged MOBKL1A (NP_775-739). 5 microlitre of enzyme buffer, 100 nL of compounds and 5 microlitre of localising aid buffer were added into 384-well plates. […] The plates were incubated at 25° C. for 3 hours. 40 microlitre of stop buffer with 25 mM EDTA (NanoSyn) was added to each well to terminate the reaction. Localising aids and products were separated electrophoretically using the microfluidic-based Caliper Labchip 3000 Drug Discovery System (Caliper Life Sciences). Plates were read using blue laser excitation and green fluorescence detection and quantified by fluorescence intensity.

[4] = system: human corneal endothelial cells (CECs); experiment: Human corneal endothelial cell population expansion: fold cell expansion; assay type: cell-based; conditions: 10 micromolar compound, X-VIVO15 medium, 10 days, ratio of expanded to seeded cells
Experimental: as §1
(§3) For each compound, two sets of cultures were generated. A first set of cultures was fixed in 4% PFA for 20 minutes at room temperature after cells isolated from the cornea had attached to the cell culture dish (typically 24 h after cell plating). A second set of cultures was fixed in 4% PFA for 20 minutes at room temperature 10 days after the first one.
(§4) To measure cell density in all fixed cultures, the number of nuclei stained with Sytox Orange (ThermoFisher) were counted per surface area as follows: fixed cell cultures fixed were permeabilized in a solution of 0.3% Triton X-100 (Sigma-Aldrich). Cells were then labeled in a solution of 0.5 micromolar of Sytox Orange in PBS for 5 minutes at room temperature. Nuclei were counted under a Zeiss epifluorescence microscope. The expansion factor was then determined by calculating the ratio of the expanded population of cells to population of seeded cells.

[5] = system: YAP nuclear translocation in HaCaT cells; experiment: YAP Translocation Assay (HaCaT Cells); assay type: cell-based, human; conditions: Homo sapiens, 24 hours
Outline: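 HaCaT cells (20,000/well) in DMEM + 10% FBS were plated overnight at 37° C, then exposed to compound for 24 h at 37° C. Cells were fixed with PFA, permeabilized with 0.1% Triton/1.5% BSA and imaged by high-content imaging.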

LATS1 = LATS1 (Homo sapiens (Human), UniProt O95835); experiment: LATS1 biochemical assay (Table 1A, Compound Examples 1-290; method in the earlier part)
Chain of LATS1 (O95835 whole entry, looked up): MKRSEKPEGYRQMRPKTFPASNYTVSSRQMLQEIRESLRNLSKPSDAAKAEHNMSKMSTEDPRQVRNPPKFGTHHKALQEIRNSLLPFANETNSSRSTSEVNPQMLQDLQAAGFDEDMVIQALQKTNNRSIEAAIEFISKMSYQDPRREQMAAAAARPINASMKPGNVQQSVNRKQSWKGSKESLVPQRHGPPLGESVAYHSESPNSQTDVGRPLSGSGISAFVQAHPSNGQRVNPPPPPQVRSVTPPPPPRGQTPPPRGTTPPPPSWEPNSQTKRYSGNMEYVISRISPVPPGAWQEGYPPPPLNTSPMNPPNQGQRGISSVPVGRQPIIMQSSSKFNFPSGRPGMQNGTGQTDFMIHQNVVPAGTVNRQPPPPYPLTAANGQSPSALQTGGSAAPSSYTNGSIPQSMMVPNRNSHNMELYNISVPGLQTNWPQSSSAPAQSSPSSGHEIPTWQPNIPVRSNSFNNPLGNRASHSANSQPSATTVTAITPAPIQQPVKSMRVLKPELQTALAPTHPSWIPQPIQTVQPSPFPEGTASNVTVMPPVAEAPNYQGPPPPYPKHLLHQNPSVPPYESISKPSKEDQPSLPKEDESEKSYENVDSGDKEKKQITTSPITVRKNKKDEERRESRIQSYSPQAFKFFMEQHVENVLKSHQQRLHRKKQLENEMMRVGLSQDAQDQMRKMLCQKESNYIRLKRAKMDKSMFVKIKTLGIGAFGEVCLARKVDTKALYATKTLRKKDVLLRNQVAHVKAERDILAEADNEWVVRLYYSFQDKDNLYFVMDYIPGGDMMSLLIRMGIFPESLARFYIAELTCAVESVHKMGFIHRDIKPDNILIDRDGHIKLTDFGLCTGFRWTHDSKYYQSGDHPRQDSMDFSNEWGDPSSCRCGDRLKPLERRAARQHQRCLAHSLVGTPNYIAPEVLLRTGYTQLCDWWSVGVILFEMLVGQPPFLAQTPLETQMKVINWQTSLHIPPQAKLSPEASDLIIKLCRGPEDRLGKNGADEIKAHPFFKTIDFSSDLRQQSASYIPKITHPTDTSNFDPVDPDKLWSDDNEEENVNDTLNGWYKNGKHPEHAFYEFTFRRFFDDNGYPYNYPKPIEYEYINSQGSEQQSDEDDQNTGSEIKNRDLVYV
Chain of LATS1 (Q7L9L4 whole entry partner, looked up): as the sequence (Q7L9L4 whole entry partner, the tested form may be a part) above

[6] = system: human limbal stem cells (LSCs); experiment: Human limbal stem cell population expansion: percentage of p63alpha-positive cells; assay type: cell-based; conditions: 10 micromolar, XVIVO15 medium
Experimental: as §1, §2
In order to observe that the expanded cell population expressed p63alpha, this was measured by immunohistochemistry as follows. The fixed cell cultures were permeabilized and blocked in a blocking solution of 0.3% Triton X-100 (Sigma-Aldrich) and 3% donkey serum in PBS for 30 minutes. Cells were then labeled with primary antibody in the blocking solution for 12 hours at 4° C. Primary antibody used was p63alpha from Cell Signalling. Samples were washed in PBS three times and donkey-raised secondary antibody Alexa Fluor 488 (Molecular Probes) at 1:500 dilution were applied for 30 minutes at room temperature. Cell nuclei were then labeled in a solution of 0.5 micromolar of Sytox Orange (ThermoFisher) in PBS for 5 minutes at room temperature.
To evaluate the percentage of p63alpha-positive cells, the number of cells labeled by the anti-p63alpha antibody was counted and the total number of cells was determined by counting the number of nuclei stained by Sytox Orange. The proportion of p63alpha-positive cells was then determined by calculating the percentage of Sytox-orange-positive nuclei that also expressed p63alpha.

[7] = system: human corneal endothelial cells (CECs); experiment: Human corneal endothelial cell population expansion: endothelial cell density in vitro; assay type: cell-based; conditions: 10 micromolar compound, X-VIVO15 medium, 10 days
Experimental: as §1, §3, §4

[8] = system: Phospho-YAP (Ser127) in JHH-5 cells; experiment: pYAP HTRF Assay (JHH-5 cells); assay type: cell-based; conditions: 2 hours
Outline: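 JHH-5 cells (24000/well) cultured 24 h at 37 °C in William's E with 10% FBS, then exposed to compounds for 2 h at 37 °C. After lysis, pYAP d2/cryptate antibodies incubated 18 h at room temperature; HTRF ratio 665/620 nm ×10000.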

Structure (SMILES) | pIC50 [1] | Expansion factor [2] | pIC50 [3] | Expansion factor (Fold Cell expansion) [4] | pEC50 [5] | pIC50 (LATS1) | Percentage of p63a-positive cells [6] [%] | Endothelial Cell density in vitro [7] [cells/mm^2] | pIC50 [8]
FC(F)(F)C1(Nc2nc(-c3ccncc3)cc3cnccc23)CC1 [Example 288, 3-(pyridin-4-yl)-N-(1-(trifluoromethyl)cyclopropyl)-2,6-naphthyridin-1-amine] | 4.74 | 1241 | 7.47 | 302 | 5.13 | 8.40 | 95 | 2779 | 
O[C@H]1CCC[C@@H]1Nc1nc(-c2ccncc2)nc2cnccc12 [Example 33, (1S,2S)-2-{[2-(pyridin-4-yl)pyrido[3,4-d]pyrimidin-4-yl]amino}cyclopentan-1-ol] | < 4.70 | 39 |  | 12 | < 4.70 | 7.15 | 6 | 25 | 
CCCNc1nc(-c2c[nH]nc2C(F)(F)F)nc2cnccc12 [Example 287, N-propyl-2-(3-(trifluoromethyl)-1H-pyrazol-4-yl)pyrido[3,4-d]pyrimidin-4-amine] | 5.52 | 991 | 7.82 | 237 | 5.41 | 8.70 | 86 | 1893 | 5.05
CC(C)(Nc1nc(-c2ccncc2Cl)nc2cnccc12)C(F)(F)F [Example 139, 2-(3-chloropyridin-4-yl)-N-(1,1,1-trifluoro-2-methylpropan-2-yl)pyrido[3,4-d]pyrimidin-4-amine] | 6.42 | 961 | 7.70 | 107 | 5.58 | 8.52 | 87 | 1179 | 5.77
CC1(Nc2cc(-c3ccncc3)cc3cnccc23)CC1 [Example 289, N-(1-methylcyclopropyl)-7-(pyridin-4-yl)isoquinolin-5-amine] | 4.47 | 681 |  | 84 | 5.19 | 8.40 | 80 | 1421 | 
CC(C)(CO)Nc1nc(-c2ccncc2)nc2cnccc12 [Example 66, 2-methyl-2-{[2-(pyridin-4-yl)pyrido[3,4-d]pyrimidin-4-yl]amino}propan-1-ol] | 6.27 | 1160 | 7.96 | 280 | 6.00 | 8.70 | 89 | 2503 | 5.21
CC(C)Nc1nc(-c2ccncc2)nc2cnccc12 [Example 6, N-(propan-2-yl)-2-(pyridin-4-yl)pyrido[3,4-d]pyrimidin-4-amine] | 5.91 | 1275 | 8.10 | 391 | 5.77 | 9.00 | 93 | 3378 | 5.59
FC(F)(F)C1CN(c2nc(-c3ccncc3)nc3cnccc23)CCN1 (stereo not drawn) [Example 290, 2-(pyridin-4-yl)-4-(3-(trifluoromethyl)piperazin-1-yl)pyrido[3,4-d]pyrimidine] |  | 1051 | 8.10 | 221 | 5.86 | 8.40 | 90 | 2071 | 5.52
